Laboratory results reported in patent publication US12077531B2, “Imidazopyridinone compound” (KISSEI PHARMACEUTICAL CO., LTD., priority 2018, dated 2024).

Molecular target: human PHD2184-418 (Homo sapiens (Human), UniProt Q9GZT9)
Assay: PHD2 inhibitory test (fluorescence polarization, binding between PHD2 and HIF-1α)
Conditions: human PHD2184-418, FITC-labeled HIF-1α556-574, 2 μM 2-oxoglutarate, 37° C. 60 minutes
In short: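 N-His-tagged human PHD2 (residues 184–418, E. coli-expressed) was preincubated with compound, then FITC-Ahx-HIF-1α556-574 peptide was added in pH 7.4 HEPES buffer with 10 μM MnCl2 and 2 μM 2-oxoglutarate. After 60 min at 37 °C, fluorescence polarization (ex 470/em 530 nm) was read. Inhibition was calculated against compound-free wells.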

Sequence of human PHD2184-418 (Q9GZT9 184-418): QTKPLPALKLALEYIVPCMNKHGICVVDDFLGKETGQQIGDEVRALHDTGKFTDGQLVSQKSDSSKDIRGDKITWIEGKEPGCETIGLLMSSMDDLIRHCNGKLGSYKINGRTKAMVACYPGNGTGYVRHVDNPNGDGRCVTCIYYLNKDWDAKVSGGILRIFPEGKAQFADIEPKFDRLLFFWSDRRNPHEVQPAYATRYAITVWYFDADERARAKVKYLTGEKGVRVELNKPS

| IC50 | SMILES |
| --- | --- |
| 1.17 µM | Cn1c(C(=O)O)cnc1CN1CC[C@H](n2c(=O)n(-c3cnc4ccccc4c3)c3cccnc32)C1 [Example 66, (S)-1-Methyl-2-((3-(2-oxo-1-(quinolin-3-yl)-1,2-dihydro-3H-imidazo[4,5-b]pyridin-3-yl)pyrrolidin-1-yl)methyl)-1H-imidazole-5-carboxylic acid] |
| 0.52 µM | Cn1c(C(=O)O)cnc1CN1CC[C@H](n2c(=O)n(-c3ccc(N4CCOCC4)cc3)c3cccnc32)C1 [Example 67, (S)-1-Methyl-2-((3-(1-(4-morpholinophenyl)-2-oxo-1,2-dihydro-3H-imidazo[4,5-b]pyridin-3-yl)pyrrolidin-1-yl)methyl)-1H-imidazole-5-carboxylic acid] |
| 8.15 µM | Cn1c(C(=O)O)cnc1CN1CC[C@H](n2c(=O)n(C3CCC(c4ccccc4)CC3)c3cccnc32)C1 (stereo partly drawn) [Example 68, (S)-1-Methyl-2-((3-(2-oxo-1-(4-phenylcyclohexyl)-1,2-dihydro-3H-imidazo[4,5-b]pyridin-3-yl)pyrrolidin-1-yl)methyl)-1H-imidazole-5-carboxylic acid] |
| 0.5 µM | C=Cc1ccc(-n2c(=O)n([C@H]3CCN(Cc4ncc(C(=O)O)n4C)C3)c3ncccc32)cc1 [Example 69, (S)-1-Methyl-2-((3-(2-oxo-1-(4-vinylphenyl)-1,2-dihydro-3H-imidazo[4,5-b]pyridin-3-yl)pyrrolidin-1-yl)methyl)-1H-imidazole-5-carboxylic acid] |
| 1.45 µM | Cn1c(C(=O)O)cnc1CN1CC[C@H](n2c(=O)n(-c3ccsc3)c3cccnc32)C1 [Example 70, (S)-1-Methyl-2-((3-(2-oxo-1-(thiophen-3-yl)-1,2-dihydro-3H-imidazo[4,5-b]pyridin-3-yl)pyrrolidin-1-yl)methyl)-1H-imidazole-5-carboxylic acid] |
| 13.9 µM | Cn1c(C(=O)O)cnc1CN1CC[C@H](n2c(=O)n(Cc3ccccc3)c3cccnc32)C1 [Example 71, (S)-2-((3-(1-Benzyl-2-oxo-1,2-dihydro-3H-imidazo[4,5-b]pyridin-3-yl)pyrrolidin-1-yl)methyl)-1-methyl-1H-imidazole-5-carboxylic acid] |
| 3 µM | Cn1c(C(=O)O)cnc1CN1CC[C@H](n2c(=O)n(-c3ccc(O)cc3)c3cccnc32)C1 [Example 73, (S)-2-((3-(1-(4-Hydroxyphenyl)-2-oxo-1,2-dihydro-3H-imidazo[4,5-b]pyridin-3-yl)pyrrolidin-1-yl)methyl)-1-methyl-1H-imidazole-5-carboxylic acid] |
| 1.85 µM | Cn1c(C(=O)O)cnc1CN1CC[C@H](n2c(=O)n(-c3ccc(-c4ccc(NS(C)(=O)=O)cc4)cc3)c3cccnc32)C1 [Example 74, (S)-1-Methyl-2-((3-(1-(4′-(methylsulfonamido)-[1,1′-biphenyl]-4-yl)-2-oxo-1,2-dihydro-3H-imidazo[4,5-b]pyridin-3-yl)pyrrolidin-1-yl)methyl)-1H-imidazole-5-carboxylic acid] |
| 99.9 µM | Cc1cccnc1CN1CC[C@H](n2c(=O)n(-c3ccc(C(=O)NCC(=O)O)cc3)c3cccnc32)C1 [Example 75, (S)-(4-(3-(1-((3-Methylpyridin-2-yl)methyl)pyrrolidin-3-yl)-2-oxo-2,3-dihydro-1H-imidazo[4,5-b]pyridin-1-yl)benzoyl)glycine] |
| 9.74 µM | Cn1c(C(=O)O)cnc1CN1CC[C@H](n2c(=O)n(-c3ccc(-c4ccccc4)cc3)c3ccc(C(=O)NC4CCOCC4)nc32)C1 [Example 76, (S)-2-((3-(1-([1,1′-Biphenyl]-4-yl)-2-oxo-5-((tetrahydro-2H-pyran-4-yl)carbamoyl)-1,2-dihydro-3H-imidazo[4,5-b]pyridin-3-yl)pyrrolidin-1-yl)methyl)-1-methyl-1H-imidazole-5-carboxylic acid] |
| 0.61 µM | Cn1c(C(=O)O)cnc1CN1CC[C@H](n2c(=O)n(-c3ccc(-c4ccccc4)cc3)c3ccc(C(=O)NCC(=O)O)nc32)C1 [Example 77, (S)-2-((3-(1-([1,1′-Biphenyl]-4-yl)-5-((carboxymethyl)carbamoyl)-2-oxo-1,2-dihydro-3H-imidazo[4,5-b]pyridin-3-yl)pyrrolidin-1-yl)methyl)-1-methyl-1H-imidazole-5-carboxylic acid] |
